Experimental data: patent US20230219939A1, “N-(1-CYANO-PYRROLIDIN-3-YL)-5-(3-(TRIFLUOROMETHYL)PHENYL)OXAZOLE-2-CARBOXAMIDE DERIVATIVES AND THE CORRESPONDING OXADIAZOLE DERIVATIVES AS USP30 INHIBITORS FOR THE TREATMENT OF MITOCHONDRIAL DYSFUNCTION” (MISSION THERAPEUTICS LIMITED, priority 2020, published 2023)
“And” between values parts separate entries of the source, which are not always exact repeats. Equal values may be shown once. Read-outs that look alike come from different tables or passages of the source.

Tests used:
USP30 = molecular target: T1, USP30 (Homo sapiens, UniProt Q70CQ3); assay: USP30 biochemical IC50 assay (fluorescence polarisation)
T1 construct: purchased Boston Biochem E582
T1 sequence (Q70CQ3 57-517 limits assumed): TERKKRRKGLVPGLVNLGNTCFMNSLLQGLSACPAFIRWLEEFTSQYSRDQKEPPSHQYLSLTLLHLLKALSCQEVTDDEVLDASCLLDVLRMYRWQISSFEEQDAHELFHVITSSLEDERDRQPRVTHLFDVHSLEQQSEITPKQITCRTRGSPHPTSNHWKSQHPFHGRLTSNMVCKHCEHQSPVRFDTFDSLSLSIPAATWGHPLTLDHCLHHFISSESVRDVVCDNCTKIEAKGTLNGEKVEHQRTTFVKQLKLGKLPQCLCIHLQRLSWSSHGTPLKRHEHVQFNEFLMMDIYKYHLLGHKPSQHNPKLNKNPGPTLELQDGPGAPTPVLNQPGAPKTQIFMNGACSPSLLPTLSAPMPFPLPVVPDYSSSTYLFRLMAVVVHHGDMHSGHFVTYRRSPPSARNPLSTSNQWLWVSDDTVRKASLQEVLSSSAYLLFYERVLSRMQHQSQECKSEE
Description: Dilution plates were prepared at 21 times the final concentration (2100 μM for a final concentration of 100 μM) in 50% DMSO in a 96-well polypropylene V-bottom plate (Greiner #651201). A typical 8-point dilution series would be 100, 30, 10, 3, 1, 0.3, 0.1, 0.03 μM final. Reactions were performed in duplicate in black 384 well plates (small volume, Greiner 784076) in a final reaction volume of 21 μl. Either 1 μl of 50% DMSO or diluted compound was added to the plate. USP30 (Boston Biochem #E582) was diluted in reaction buffer (40 mM Tris, pH 7.5, 0.005% Tween 20, 0.5 mg/ml BSA, 5 mM beta-mercaptoethanol) to achieve a final assay concentration of 4 nM, and 10 μl of diluted USP30 was added to the compound. Enzyme and compound were incubated for 30 min at room temp. Reactions were initiated by the addition of 50 nM of TAMRA labelled peptide linked to ubiquitin via an iso-peptide bond as fluorescence polarisation substrate. Reactions were read immediately after addition of substrate and following a 2-hour incubation at room temperature. Readings were performed on a Pherastar Plus (BMG Labtech). λ Excitation 540 nm; λ Emission 590 nm.

[1] = tested on: USP2, USP6, USP10, USP16, USP21, USP22, USP25, USP28; assay: DUB selectivity panel IC50; assay type: biochemical
UCHL1 = molecular target: T2, UCHL1 (Homo sapiens, UniProt P09936); assay: UCHL1 DUB IC50; assay type: biochemical
T2 sequence (P09936 1-223): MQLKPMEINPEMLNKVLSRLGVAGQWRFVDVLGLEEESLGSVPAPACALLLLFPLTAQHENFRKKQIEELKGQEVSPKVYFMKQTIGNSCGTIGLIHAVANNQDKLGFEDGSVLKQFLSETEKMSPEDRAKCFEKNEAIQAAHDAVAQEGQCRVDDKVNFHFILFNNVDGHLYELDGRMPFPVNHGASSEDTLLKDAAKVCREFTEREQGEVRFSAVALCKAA

Cathepsin S = Cathepsin S (Homo sapiens, UniProt P25774); assay: Cathepsin S IC50; assay type: biochemical
Turbidimetric solubility = assay type: physicochemical; conditions: aqueous buffer, kinetic from dmso stock
Description: Turbidimetric solubility: Test compound solution prepared in DMSO diluted into aqueous buffer.
Turbidimetry is used as the end-point by measuring absorbance at 620 nm.

FaSSIF solubility = assay type: physicochemical; conditions: pH 6.5, simulated intestinal fluid fasted state
Description: FaSSIF: simulated intestinal fluid in fasted state measured at pH 6.5.

PK mouse 2 mg/kg iv = assay type: in vivo; conditions: plasma, read-out: Cl plasma
Description: Cl in vivo clearance: Pharmacokinetic measurement of the volume of plasma (or any matrix) from which a substance is completely removed per unit time.

PK mouse 10 mg/kg PO = assay type: in vivo
Description: Oral F: Oral bioavailability.

Cathepsin S, sequence (P25774 115-331, species assumed): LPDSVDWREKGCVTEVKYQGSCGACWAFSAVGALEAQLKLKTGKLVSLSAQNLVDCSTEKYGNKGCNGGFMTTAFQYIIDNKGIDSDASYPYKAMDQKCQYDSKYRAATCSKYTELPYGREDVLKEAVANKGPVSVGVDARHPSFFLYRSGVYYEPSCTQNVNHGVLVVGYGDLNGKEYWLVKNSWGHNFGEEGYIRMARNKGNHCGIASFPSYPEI

## COC[C@@H]1C[C@@H](NC(=O)c2ncc(-c3cccc(C(F)(F)F)c3)o2)CN1C#N [Example 1, N-((3R,5S)-1-Cyano-5-(methoxymethyl)-pyrrolidin-3-yl)-5-(3-(trifluoromethyl)phenyl)oxazole-2-carboxamide]
USP30; USP30 biochemical IC50 assay, read-out: USP30 IC50
  IC50: 0.009 µM
USP30; read-out: DUB IC50 (μM) USP30
  IC50: 0.009 µM and 0.004 to 0.033 µM
[1]
  DUB selectivity preference for USP30 v 8 DUBs: >1777
[1]; range over the eight DUBs, read-out: DUB IC50 (μM) USP2, USP6, USP10, USP16, USP21, USP22, USP25, USP28
  IC50: 16 to 97.9 µM
UCHL1
  IC50: > 300 µM
Cathepsin S
  IC50: 138 µM
Turbidimetric solubility
  solubility: > 100 µM
FaSSIF solubility
  FaSSIF (μM) measured at pH 6.5: 200 μM
PK mouse 2 mg/kg iv
  clearance: 19 mL/min/kg
PK mouse 10 mg/kg PO; 10 mg/kg PO dose - mouse
  Unbound plasma Cmax/TOM20-Ub cell potency: 41-fold
PK mouse 10 mg/kg PO; plasma, po, mouse 10 mg/kg, read-out: Oral F (%)
  bioavailability: 82%
